Each structure is given as a SMILES string.

The text below walks through data of patent US9284272B2, “Inhibitors of histone methyltransferase G9a” (AbbVie Inc., priority 2014, dated 2016).

A short description of data set [1]: Cytotoxicity, CellTiter Glo. It is filed as cell-based. The following applies: human, TC-71 cells, 7-day proliferation, neural crest derived lines. On the technique in general: ATP-based viability assays read luminescence as a measure of living cells.
A short description of data set [2]: Cytotoxicity, CellTiter Glo. It is filed as cell-based. Conditions: human, Kasume-1 cells, 5-day proliferation.
A short description of data set [3]: Cytotoxicity, CellTiter Glo. It is filed as cell-based. The following applies: human, RS4;11 cells, 5-day proliferation.
Data set [4] in a line: Cytotoxicity, CellTiter Glo. The following applies: human, DU145 cells, 5-day proliferation. The format is cell-based.
A short description of data set [5]: Cytotoxicity, CellTiter Glo. Conditions: human, Calu6 cells, 5-day proliferation. It is filed as cell-based.
In a further data set the test system is MV4;11 cells. The experiment in a line: Differentiation, proliferation, viability and cell cycle of MV4;11 cells, 14 days. It is filed as cell-based, human. The text has this: MV4;11 cells are a human acute myelocytic leukemia (AML) cell line derived from a human with leukemia.
The nature of data set [6]: Cytotoxicity, CellTiter Glo. The format is cell-based. Conditions: human, L-363 cells, 5-day proliferation.
Data set [7] can be described thus: Cytotoxicity, CellTiter Glo. Conditions: human, KMS11 cells, 5-day proliferation. It is filed as cell-based.
The nature of data set [8]: Cytotoxicity, CellTiter Glo. The format is cell-based. Conditions: human, OPM2 cells, 5-day proliferation.
Data set [9] has as its system HT1080 fibrosarcoma cells. The experiment in a line: Cell viability of HT1080 fibrosarcoma cells. It is filed as cell-based. Conditions: 48 h, 0-10,000 nM.
Data set [10] in a line: Cytotoxicity, CellTiter Glo. The following applies: human, G-401 cells, 7-day proliferation, neural crest derived lines. It is filed as cell-based.
The nature of data set [11]: Cytotoxicity, CellTiter Glo. It is filed as cell-based. The following applies: human, HL-60 cells, 5-day proliferation.
Data set [12] can be described thus: Cytotoxicity, CellTiter Glo. The format is cell-based. Conditions: human, RPMI8226 cells, 5-day proliferation.
Data set [13] in a line: Cytotoxicity, CellTiter Glo. The format is cell-based. Conditions: human, SK-N-MC cells, 7-day proliferation, neural crest derived lines.
Data set [14] concerns subcutaneous MV4;11 xenografts. Put plainly: In vivo efficacy study, MV4;11 xenograft tumor volume. The following applies: 30 mg/kg/day osmotic mini-pump for 14 days, compared to vehicle. The arrangement: species or system SCID/bg mice. As to the method:
The efficacy of the compound of Example 7 was further examined by monitoring tumor volume during treatment with the compound of Example 7. Subcutaneous MV4;11 xenografts were implanted in SCID/bg mice and allowed to grow to 200 mm^3. […] Tumors were measured at the indicated time points (i.e., from 20 days to 55 days post-inoculation of the mice with the MV4;11 cells) and tumor growth was plotted as a function of time (FIG. 9).

Data set [15] is described as follows: Cytotoxicity, CellTiter Glo. The format is cell-based. Conditions: human, K562 cells, 5-day proliferation.

Take `COc1cc2c(cc1OCCCN1CCCC1)N=C(N)C21CCC1` [Example 7, 5′-methoxy-6′-(3-(pyrrolidin-1-yl)propoxy)spiro[cyclobutane-1,3′-indol]-2′-amine]: the results for the IC50 at 7 day in data set [1], in [10] and in [13] were greater than 10 µM, greater than 10 µM and 9.7 µM, respectively. Further, the IC50 at 5 day in [2], in data set [3], in data set [4], in [5], in data set [6] and in [7] was greater than 10 µM in each case. The IC50 at 5 day in [8], in data set [11], in data set [12] and in data set [15] was greater than 10 µM throughout. Besides, the “MV4;11 cells no longer proliferating (CellTiter Glo)” value in the data set on MV4;11 cells (3 μM) is recorded as “about 100%”. Further, in the data set on MV4;11 cells (Homo sapiens, MV4-11, 336 h, 3 μM, read-out: viable MV4;11 cells (trypan blue exclusion)), the viability at 3 µM is roughly 20%. For the same molecule, the “cell cycle analysis (PI staining)” value with MV4;11 cells (MV4;11 cells, 0-3 μM) is “more cells were observed to be in the subG1/G0 phase”. Also, the “expression of marker CD11b by flow cytometry (differentiation)” value in the data set with MV4;11 cells (MV4;11 cells, 0-3 μM) is “more cells in the population expressed the marker CD11b”. In addition, the “cells positive for CD11b” value in the data set on MV4;11 cells (MV4;11 cells, 3 μM) was “about 90%”. Moreover, in [9], the “cytotoxicity compared with UNC0638” value is given as “reduced cytotoxicity”. Also, in data set [14], the “tumor growth (tumor volume)” value is “growth inhibition of the tumors”.

As a reminder, the IC50 is the concentration that inhibits the measured activity by half. Lower therefore signals greater potency.
